Measurements reported in patent publication US12054470B2, “Photoswitchable dibenzothienylmethyl triphenylphosphonium derivatives and methods of treating cancer therewith” (Saint Louis University, priority 2018, dated 2024).

Legend:
Water solubility = assay type: physicochemical
[1] = system: MDA-MB-231 breast cancer cells; assay: MTS cell viability assay with and without UV-A exposure; assay type: cell-based; settings: compound added pre-UV exposure (UV-A 30 min), 100 μM and 10 μM, MTS after 24 h, vs. VC, n=4
Method: After 24 hours incubation at 37° C., varying concentrations of 2-TPPMDBTO were added and incubated for 1 hour at 37° C. One plate with cells were then left at room temperature covered for 15 minutes (cells without UV). The second plate was exposed to UV-A in a Luzchem photoreactor with 8 LZC-UVA lamps for 15 minutes (Cells with UV). Plates were then incubated for 24 hours at 37° C. and then a MTS cell viability assay (Promega) was performed. Cell viability assay was run on a Flexstation3 mulitmode plate reader and percent viability was calculated. Statistical analyses were performed using GraphPad Prism program.
FIGS. 6A-C show cell studies wherein MDA-MB-231 breast cancer cells were plated at 10,000 cells/well on three 96 well plates. After 24 hours incubation at 37° C., varying concentrations of MA-1 and MA-2 were added and incubated for 1 hour at 37° C. on only two plates (pre-UV and no UV exposure). One plate with cells were then left at room temperature covered for 30 min (no UV). The second plate (pre-UV) and the third plate (post-UV) were exposed to UV-A in a Luzchem photoreactor with 8 LZC-UVA lamps for 30 min. Varying concentrations of MA-1, MA-2, MA-3 and MA-4 were added to post UV plate after irradiation. […] Cell viability assay was run on a Flexstation3 mulitmode plate reader and percent viability was calculated. […]

cell cycle progression = assay: Cell cycle progression with, without or before UV-A irradiation; assay type: cell-based

water solubility (Water solubility)	Molecule	% cell viability [1]	cell cycle progression / cell cycle arrest (cell cycle progression; compound administered in the absence of UV or after irradiation)	cell cycle progression / cell cycle arrest (cell cycle progression; compound administered in the absence of UV or after irradiation, listed as 1a)	cell cycle progression / cell cycle arrest (cell cycle progression; in the presence of UV-A irradiation)	cell cycle progression / cell cycle arrest (cell cycle progression; in the presence of UV-A irradiation, listed as 1a)
water soluble	[O-][s+]1c2ccccc2c2cc(C[P+](c3ccccc3)(c3ccccc3)c3ccccc3)ccc21 (stereo not drawn) [MA-1, (5-oxo-2-dibenzothienylmethyl)triphenylphosphonium]	–	–	–	–	–
–	(5-oxo-2-dibenzothienylmethyl)triphenylphosphonium [MA-1]	decrease in % cell viability is observed	the progression of the cell cycle is not arrested	no significant change in the progress was seen	cell cycle progression is arrested	presence of UV-A irradiation is necessary to lead to cell cycle arrest
